Data published in PubChem BioAssay AID2060503 (Molecular Pharmacology Branch, DTP, NCI, 2025).

Test system: 817829-284-R-J1-PDC complex spheroids, viability
Experiment: Anticancer human tumor 817829-284-R-J1-PDC patient-derived colon adenocarcinoma cell line growth inhibition [GQUAD]
Conditions: for IC50: curve of first compound; for viability, T/C: stronger effect = lower value
Source text: DNA G-quadruplex Stabilizer Agents in Combinations in Complex Spheroids
A high-throughput screen of multi-cell type tumor spheroids was designed to identify active combinations of DNA G-quadruplex stabilizer agents and targeted small molecules. Complex spheroids include a stromal component modeled by human endothelial cells (HUVEC) and fibroblasts modeled by human mesenchymal stem cells (MSCs). The concentration ranges selected for each drug and investigational agent were based upon clinically achievable concentrations if the clinical Cmax of the agent was known.
Compounds. The drugs and investigational agents: pidnarulex (CX-5461; NSC782164), APTO-253 (NSC789042), BRACO-19 (NSC847499), peposertib (NSC802822), ceralasertib (NSC780249), elimusertib (NSC800525), camonsertib (NSC841442), AZD-1390 (NSC803789), olaparib (NSC753686), talazoparib (NSC767125), ART-558 (NSC835418), sotorasib (NSC818433), MRTX-1133 (NSC836407), SN-38 (NSC673596), topotecan (NSC609699), etoposide (NSC141540), doxorubicin (NSC123127), gemcitabine (NSC613327), 5-fluorouracil (NSC19893), paclitaxel (NSC125973), vemurafenib (NSC761431), panobinostat (NSC761190), R-306465 (JNJ-16241199; NSC773264), adavosertib (NSC754352), TP-3654 (NSC805149), carboplatin (NSC241240), KSQ-4279 (NSC840948), and staurosporine (NSC755774) were obtained from the National Cancer Institute (NCI) Developmental Therapeutics Program Chemical Repository (34). The FDA-approved anticancer drug set is available from the NCI Developmental Therapeutics Program. […] The stock solutions were prepared in dimethyl sulfoxide (DMSO, Sigma-Aldrich, St. Louis, MO, cat. D2650) at 800-fold the tested concentration and stored at -70 degrees C prior to their use. All drugs and investigational agents were tested over a range starting from a high concentration at or near the clinical Cmax and decreasing in half-log increments. If the clinical Cmax for an agent had not been determined, the highest concentration tested was 10 microM.
2.3 Cell Culture. All cells were maintained in an incubator at 37 degrees C and 5% CO2 with 95% humidity. The PDC lines were cultured according to standard operating procedures established by the NCI PDMR. All PDCs were thawed and cultured in Matrigel-coated flasks prepared with a working solution of 1X Ham's F-12 nutrient mix, without supplementation (Invitrogen, cat. 11765054), 100 U/mL penicillin-streptomycin (Invitrogen, cat. 15140122), and 2.5% Matrigel (Corning Inc., cat. 354248) for the first three passages. The 857933-349-R-J2-PDC line was cultured in 6C/Colon 1B media, which includes advanced DMEM/F-12 (Thermo Fisher Scientific, cat. 12634028), 10 mM HEPES (Thermo Fisher Scientific, cat. 15630080), 1X GlutaMAX supplement (Thermo Fisher Scientific, cat. 35050061), 0.1 mg/mL primocin (InvivoGen, cat. ant-pm-2), 10% defined fetal bovine serum, heat inactivated (HyClone Laboratories Inc., cat. SH30070.03HI), 50% L-WRN conditioned media (ATCC, cat. CRL-3276), 1.25 mM N-Acetyl-L-cysteine (Sigma-Aldrich, cat. A9165), 10 mM nicotinamide (Sigma-Aldrich, cat. N0636), 1X B-27 supplement (Thermo Fisher Scientific, cat. 17504044), 1X N-2 supplement (Thermo Fisher Scientific, cat. 17502048), 10 microM Y-27632 dihydrochloride (Tocris Bioscience, cat. 1254), and 50 ng/mL human EGF recombinant protein (Thermo Fisher Scientific, cat. PHG0311). The 485176-168-R4-J1-PDC line was cultured in Panc media, which includes all 6C/Colon 1B media components plus 100 ng/mL human FGF-10 (Thermo Fisher Scientific, cat. 100-26), 500 nM SB-431542 (Selleckchem, cat. S1067), and gastrin (Tocris, cat. 3006).
[…]

[1] = second compound 0.0316 µM, first compound 0.0316 µM
[2] = second compound 0.0316 µM, first compound 0.316 µM
[3] = second compound 0.1 µM, first compound 0.0316 µM
[4] = second compound 0.1 µM, first compound 0.316 µM
[5] = second compound 0.316 µM, first compound 0.0316 µM
[6] = second compound 0.316 µM, first compound 0.316 µM
[7] = second compound 1 µM, first compound 0.0316 µM
[8] = second compound 1 µM, first compound 0.316 µM
[9] = second compound 3.16 µM, first compound 0.0316 µM
[10] = second compound 3.16 µM, first compound 0.316 µM
[11] = second compound 10 µM, first compound 0.0316 µM
[12] = second compound 10 µM, first compound 0.316 µM
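Further: spheroids exposed to agents for 7 days before readout.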
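Wherever viability, T/C is given: percent viability relative to DMSO vehicle control taken as 100%.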

`C=CC(=O)N1CCN(c2nc(=O)n(-c3c(C)ccnc3C(C)C)c3nc(-c4c(O)cccc4F)c(F)cc23)C(C)C1` (centres undefined) + CN(C)c1ccc(Nc2c3ccc(NC(=O)CCN4CCCC4)cc3nc3cc(NC(=O)CCN4CCCC4)ccc23)cc1 was tested, and the IC50 (second compound 0.0316 µM) was > 10000 nM, the IC50 (second compound 0.1 µM) was > 10000 nM and the IC50 (second compound 0.316 µM) was > 10000 nM. For the same compound, the IC50 (second compound 1 µM) was > 10000 nM, the IC50 (second compound 3.16 µM) was > 10000 nM and the IC50 (second compound 10 µM) was 7180 nM. For the same compound, the viability, T/C [1] was 101%, the viability, T/C (second compound 0.0316 µM, first compound 0.1 µM) was 103% and the viability, T/C [2] was 97.5%. For the same compound, the viability, T/C (second compound 0.0316 µM, first compound 1 µM) was 99.4%, the viability, T/C (second compound 0.0316 µM, first compound 3.16 µM) was 83.7% and the viability, T/C (second compound 0.0316 µM, first compound 10 µM) was 80%. It also gave a viability, T/C [3] of 99.7%, a viability, T/C (second compound 0.1 µM, first compound 0.1 µM) of 103% and a viability, T/C [4] of 104%. It also gave a viability, T/C (second compound 0.1 µM, first compound 1 µM) of 98.7%, a viability, T/C (second compound 0.1 µM, first compound 3.16 µM) of 106% and a viability, T/C (second compound 0.1 µM, first compound 10 µM) of 85.4%. For the same compound, the viability, T/C [5] was 91.3%, the viability, T/C (second compound 0.316 µM, first compound 0.1 µM) was 107% and the viability, T/C [6] was 89.6%. The viability, T/C (second compound 0.316 µM, first compound 1 µM) was 108%, the viability, T/C (second compound 0.316 µM, first compound 3.16 µM) was 86.3% and the viability, T/C (second compound 0.316 µM, first compound 10 µM) was 76.2%. It also gave a viability, T/C [7] of 96.2%, a viability, T/C (second compound 1 µM, first compound 0.1 µM) of 107% and a viability, T/C [8] of 92.3%. The viability, T/C (second compound 1 µM, first compound 1 µM) was 105%, the viability, T/C (second compound 1 µM, first compound 3.16 µM) was 92.2% and the viability, T/C (second compound 1 µM, first compound 10 µM) was 72.1%. For the same compound, the viability, T/C [9] was 95.6%, the viability, T/C (second compound 3.16 µM, first compound 0.1 µM) was 97.5% and the viability, T/C [10] was 98.8%. The viability, T/C (second compound 3.16 µM, first compound 1 µM) was 92.3%, the viability, T/C (second compound 3.16 µM, first compound 3.16 µM) was 92.3% and the viability, T/C (second compound 3.16 µM, first compound 10 µM) was 69.3%. The viability, T/C [11] was 101%, the viability, T/C (second compound 10 µM, first compound 0.1 µM) was 105% and the viability, T/C [12] was 92.7%. The viability, T/C (second compound 10 µM, first compound 1 µM) was 92.3%, the viability, T/C (second compound 10 µM, first compound 3.16 µM) was 84.3% and the viability, T/C (second compound 10 µM, first compound 10 µM) was 36.4%.

In the case of `CC[C@@]1(O)C(=O)OCc2c1cc1n(c2=O)Cc2cc3c(CN(C)C)c(O)ccc3nc2-1` + CN(C)c1ccc(Nc2c3ccc(NC(=O)CCN4CCCC4)cc3nc3cc(NC(=O)CCN4CCCC4)ccc23)cc1, the IC50 (second compound 0.0316 µM) is reported as 67.8 nM, the IC50 (second compound 0.1 µM) is reported as 59 nM and the IC50 (second compound 0.316 µM) is reported as 67.9 nM. It also gave an IC50 (second compound 1 µM) of 63.7 nM, an IC50 (second compound 3.16 µM) of 68.3 nM and an IC50 (second compound 10 µM) of 75.7 nM. The viability, T/C (second compound 0.0316 µM, first compound 0.000999 µM) was 80.2%, the viability, T/C (second compound 0.0316 µM, first compound 0.00316 µM) was 104% and the viability, T/C (second compound 0.0316 µM, first compound 0.00999 µM) was 94.8%. It also gave a viability, T/C [1] of 65.9%, a viability, T/C (second compound 0.0316 µM, first compound 0.0999 µM) of 45.4% and a viability, T/C [2] of 35.5%. It also gave a viability, T/C (second compound 0.1 µM, first compound 0.000999 µM) of 97.1%, a viability, T/C (second compound 0.1 µM, first compound 0.00316 µM) of 122% and a viability, T/C (second compound 0.1 µM, first compound 0.00999 µM) of 108%. For the same compound, the viability, T/C [3] was 59.8%, the viability, T/C (second compound 0.1 µM, first compound 0.0999 µM) was 44.5% and the viability, T/C [4] was 38.5%. For the same compound, the viability, T/C (second compound 0.316 µM, first compound 0.000999 µM) was 89.7%, the viability, T/C (second compound 0.316 µM, first compound 0.00316 µM) was 123% and the viability, T/C (second compound 0.316 µM, first compound 0.00999 µM) was 107%. For the same compound, the viability, T/C [5] was 66.7%, the viability, T/C (second compound 0.316 µM, first compound 0.0999 µM) was 46.4% and the viability, T/C [6] was 35.6%. The viability, T/C (second compound 1 µM, first compound 0.000999 µM) was 111%, the viability, T/C (second compound 1 µM, first compound 0.00316 µM) was 108% and the viability, T/C (second compound 1 µM, first compound 0.00999 µM) was 105%. For the same compound, the viability, T/C [7] was 62.9%, the viability, T/C (second compound 1 µM, first compound 0.0999 µM) was 45.9% and the viability, T/C [8] was 34%. The viability, T/C (second compound 3.16 µM, first compound 0.000999 µM) was 114%, the viability, T/C (second compound 3.16 µM, first compound 0.00316 µM) was 99.9% and the viability, T/C (second compound 3.16 µM, first compound 0.00999 µM) was 101%. For the same compound, the viability, T/C [9] was 67.7%, the viability, T/C (second compound 3.16 µM, first compound 0.0999 µM) was 41.5% and the viability, T/C [10] was 32.4%. It also gave a viability, T/C (second compound 10 µM, first compound 0.000999 µM) of 102%, a viability, T/C (second compound 10 µM, first compound 0.00316 µM) of 101% and a viability, T/C (second compound 10 µM, first compound 0.00999 µM) of 84%. For the same compound, the viability, T/C [11] was 65.8%, the viability, T/C (second compound 10 µM, first compound 0.0999 µM) was 45.6% and the viability, T/C [12] was 30.3%.
